From patent US8415342B2, “Besifloxacin ophthalmic composition for the treatment or control of infection” (Bausch & Lomb Incorporated, priority 2008, dated 2013)
Values after ≈ are worked out from the molar mass of the structure shown. Read-outs that look alike come from different tables or passages of the source.

What was measured:
Assay type in all cases: cell-based
[1] = system: Legionella pneumophila; assay: microbe, parasite or virus in culture
[2] = system: Staphylococcus warneri; assay: MIC, CLSI broth microdilution, clinical isolates; conditions: Staphylococcus warneri (N = 50)
[3] = system: Staphylococcus epidermidis; assay: MIC, CLSI broth microdilution, clinical isolates; conditions: for MIC50: Staphylococcus epidermidis
[4] = system: Staphylococcus lugdunensis; assay: MIC, CLSI broth microdilution, clinical isolates; conditions: Staphylococcus lugdunensis (N = 15)
[5] = system: Staphylococcus hominis; assay: MIC, CLSI broth microdilution, clinical isolates; conditions: Staphylococcus hominis (N = 50)
[6] = system: Staphylococcus aureus; assay: MIC, CLSI broth microdilution, clinical isolates; conditions: for MIC50 / MIC90: Staphylococcus aureus
[7] = system: Streptococcus agalactiae; assay: MIC, CLSI broth microdilution, clinical isolates; conditions: Streptococcus agalactiae (N = 100)
[8] = system: S. aureus; assay: MIC of clinical trial isolates, Studies 373, 433, 434; conditions: Staphylococcus aureus
[9] = system: S. epidermidis; assay: as above; conditions: Staphylococcus epidermidis, read-out: MIC90
[10] = system: Staphylococcus saprophyticus; assay: MIC, CLSI broth microdilution, clinical isolates; conditions: Staphylococcus saprophyticus (N = 101)
[11] = system: Morganella morganii; assay: MIC, CLSI broth microdilution, clinical isolates; conditions: Morganella morganii (N = 51)
[12] = system: Streptococcus pneumoniae; assay: MIC, CLSI broth microdilution, clinical isolates
[13] = system: Haemophilus influenzae; assay: MIC, CLSI broth microdilution, clinical isolates; conditions: for MIC50 / MIC90: Haemophilus influenzae
[14] = system: Viridans streptococci; assay: MIC, CLSI broth microdilution, clinical isolates; conditions: Viridans streptococci (N = 156)
[15] = system: Moraxella catarrhalis; assay: MIC, CLSI broth microdilution, clinical isolates; conditions: Moraxella catarrhalis (N = 101)
[16] = system: Staphylococcus haemolyticus; assay: MIC, CLSI broth microdilution, clinical isolates; conditions: Staphylococcus haemolyticus (N = 101)
[17] = system: Lancefield group C, F, G streptococci; assay: MIC, CLSI broth microdilution, clinical isolates; conditions: G streptococci (N = 50)
[18] = system: Anaerobic Bacteria; assay: MIC against anaerobic bacteria (Table 7)
[19] = system: Citrobacter koseri; assay: MIC, CLSI broth microdilution, clinical isolates; conditions: Citrobacter koseri (N = 100)
[20] = system: Streptococcus pyogenes; assay: MIC, CLSI broth microdilution, clinical isolates; conditions: Streptococcus pyogenes (N = 101)
[21] = system: Klebsiella oxytoca; assay: MIC, CLSI broth microdilution, clinical isolates; conditions: Klebsiella oxytoca (N = 50)
[22] = Staphylococcus epidermidis (CNS, N = 6)
[23] = Staphylococcus epidermidis (CS, N = 9)
[24] = Staphylococcus epidermidis (MSSE, N = 6)
[25] = Staphylococcus epidermidis (all phenotypes, N = 15)
[26] = Staphylococcus aureus (CNS, N = 16)
[27] = Staphylococcus aureus (CS, N = 14)
[28] = Staphylococcus aureus (all phenotypes, N = 30)
[29] = MRSA, Staphylococcus aureus (MRSA, N = 11)
[30] = MSSA, Staphylococcus aureus (MSSA, N = 19)
[31] = Streptococcus pneumoniae (PISP, N = 2)
[32] = Streptococcus pneumoniae (PRSP, N = 2)
[33] = Streptococcus pneumoniae (PSSP, N = 31)
[34] = Streptococcus pneumoniae (all phenotypes, N = 35)
[35] = Haemophilus influenzae (all phenotypes, N = 40)
[36] = Haemophilus influenzae (bla negative, N = 24)
[37] = Haemophilus influenzae (bla positive, N = 16)
[38] = Clostridium perfringens, Clostridium perfringens (N = 21)

COc1c(N2CCNC(C)C2)c(F)cc2c(=O)c(C(=O)O)cn(C3CC3)c12 (centres unmarked) [Gatifloxacin]
MIC50 ([1]; Legionella pneumophila): 0.03 µg/mL (≈ 0.0799 µM)
MIC90 ([1]; Legionella pneumophila): 0.06 µg/mL (≈ 0.16 µM)
MIC Range ([1]; Legionella pneumophila (N = 50)): 0.015 to 0.06 µg/mL
% S [2]: 76.0%
MIC50 [2]: 0.12 µg/mL (≈ 0.32 µM)
MIC90 [2]: 4 µg/mL (≈ 10.7 µM)
% S [3, 22]: 50.0%
% S [3, 23]: 100.0%
MIC Range [3, 23]: 0.06-0.06 μg/mL
% S ([3]; Staphylococcus epidermidis (MRSE, N = 9)): 44.4%
% S [3, 24]: 83.3%
MIC Range [3, 24]: 0.06 to 1 µg/mL
% S [3, 25]: 60.0%
MIC90 [3, 25]: > 8 µg/mL
MIC50 ([3]; MRSE, Staphylococcus epidermidis (MRSE, N = 9)): 1 µg/mL (≈ 2.66 µM)
MIC50 [3, 22]: 1 µg/mL (≈ 2.66 µM)
MIC50 [3, 23]: 0.06 µg/mL (≈ 0.16 µM)
MIC50 [3, 24]: 0.06 µg/mL (≈ 0.16 µM)
MIC50 [3, 25]: 0.06 µg/mL (≈ 0.16 µM)
% S [4]: 73.3%
MIC50 [4]: 0.12 µg/mL (≈ 0.32 µM)
MIC90 [4]: 2 µg/mL (≈ 5.33 µM)
MIC Range [4]: 0.03 to 8 µg/mL
% S [5]: 32.0%
MIC50 [5]: 1 µg/mL (≈ 2.66 µM)
MIC90 [5]: 4 µg/mL (≈ 10.7 µM)
% S [6, 26]: 6.3%
% S [6, 27]: 92.9%
MIC Range [6, 27]: 0.03 to 1 µg/mL
% S ([6]; Staphylococcus aureus (MRSA, N = 11)): 18.2%
% S ([6]; Staphylococcus aureus (MSSA, N = 19)): 63.2%
% S [6, 28]: 46.7%
MIC50 [6, 29]: 2 µg/mL (≈ 5.33 µM)
MIC90 [6, 29]: > 8 µg/mL
MIC50 [6, 30]: 0.06 µg/mL (≈ 0.16 µM)
MIC90 [6, 30]: 2 µg/mL (≈ 5.33 µM)
MIC50 [6, 26]: 2 µg/mL (≈ 5.33 µM)
MIC90 [6, 26]: > 8 µg/mL
MIC50 [6, 27]: 0.06 µg/mL (≈ 0.16 µM)
MIC90 [6, 27]: 0.25 µg/mL (≈ 0.666 µM)
MIC50 [6, 28]: 1 µg/mL (≈ 2.66 µM)
MIC90 [6, 28]: > 8 µg/mL
% S [7]: 100.0%
MIC Range [7]: 0.12 to 1 µg/mL
MIC50 ([7]; read-out: MIC50): 0.25 µg/mL (≈ 0.666 µM)
MIC90 ([7]; read-out: MIC90): 0.25 µg/mL (≈ 0.666 µM)
MIC90 ([8]; MRSA, S. aureus MRSA-CR, N 17, read-out: MIC90): > 8 µg/mL
MIC90 ([8]; MRSA, S. aureus MRSA-CS, N 9, read-out: MIC90 (due to limited isolates, highest MIC value is given)): 0.25 µg/mL
MIC90 ([8]; MSSA, S. aureus MSSA-CR, N 17, read-out: MIC90): > 8 µg/mL
MIC90 ([8]; MSSA, S. aureus MSSA-CS, N 144, read-out: MIC90): 0.25 µg/mL
MIC90 ([9]; MRSE, S. epidermidis MRSE-CR, N 24): > 8 µg/mL
MIC90 ([9]; MRSE, S. epidermidis MRSE-CS, N 27): 0.25 µg/mL
MIC90 ([9]; S. epidermidis MSSE-CR, N 10): 8 µg/mL
MIC90 ([9]; S. epidermidis MSSE-CS, N 50): 0.25 µg/mL
% S [10]: 100.0%
MIC50 [10]: 0.12 µg/mL (≈ 0.32 µM)
MIC90 [10]: 0.25 µg/mL (≈ 0.666 µM)
MIC Range [10]: 0.03 to 0.25 µg/mL
% S [11]: 74.5%
MIC50 [11]: 0.12 µg/mL (≈ 0.32 µM)
MIC90 [11]: > 8 µg/mL
% S [12, 31]: 100.0%
MIC Range [12, 31]: 0.25-0.25 μg/mL
% S [12, 32]: 100.0%
MIC Range [12, 32]: 0.12 to 0.25 µg/mL
% S [12, 33]: 96.8%
MIC50 [12, 33]: 0.12 µg/mL (≈ 0.32 µM)
MIC90 [12, 33]: 0.25 µg/mL (≈ 0.666 µM)
MIC Range [12, 33]: 0.015 to 4 µg/mL
% S [12, 34]: 97.1%
MIC Range [12, 34]: 0.015 to 4 µg/mL
MIC50 ([12]; Streptococcus pneumoniae (all phenotypes, N = 35), read-out: MIC50): 0.12 µg/mL (≈ 0.32 µM)
MIC90 ([12]; Streptococcus pneumoniae (all phenotypes, N = 35), read-out: MIC90): 0.25 µg/mL (≈ 0.666 µM)
% S [13, 35]: 100.0%
MIC Range [13, 35]: ≦0.004-0.015 μg/mL
% S [13, 36]: 100.0%
MIC Range [13, 36]: ≦0.004-0.015 μg/mL
% S [13, 37]: 100.0%
MIC Range [13, 37]: ≦0.004-0.015 μg/mL
MIC50 [13, 35]: 0.008 µg/mL (≈ 0.0213 µM)
MIC90 [13, 35]: 0.008 µg/mL (≈ 0.0213 µM)
MIC50 [13, 36]: 0.008 µg/mL (≈ 0.0213 µM)
MIC90 [13, 36]: 0.008 µg/mL (≈ 0.0213 µM)
MIC50 [13, 37]: 0.008 µg/mL (≈ 0.0213 µM)
MIC90 [13, 37]: 0.008 µg/mL (≈ 0.0213 µM)
MIC Range [14]: 0.03 to 8 µg/mL
MIC50 ([14]; read-out: MIC50): 0.25 µg/mL (≈ 0.666 µM)
MIC90 ([14]; read-out: MIC90): 0.5 µg/mL (≈ 1.33 µM)
MIC50 [15]: 0.015 µg/mL (≈ 0.04 µM)
MIC90 [15]: 0.015 µg/mL (≈ 0.04 µM)
MIC Range [15]: 0.008 to 0.25 µg/mL
% S [16]: 40.6%
MIC50 [16]: 2 µg/mL (≈ 5.33 µM)
MIC90 [16]: 8 µg/mL (≈ 21.3 µM)
% S [17]: 98.0%
MIC Range [17]: 0.06 to 2 µg/mL
MIC50 ([17]; read-out: MIC50): 0.12 µg/mL (≈ 0.32 µM)
MIC90 ([17]; read-out: MIC90): 0.25 µg/mL (≈ 0.666 µM)
MIC Range ([18]; Bacteroides fragilis (N = 20)): 1 to 16 µg/mL
MIC50 ([18]; Bacteroides fragilis, Bacteroides fragilis (N = 20), read-out: MIC50): 2 µg/mL (≈ 5.33 µM)
MIC90 ([18]; Bacteroides fragilis, Bacteroides fragilis (N = 20), read-out: MIC90): 4 µg/mL (≈ 10.7 µM)
MIC Range ([18]; Clostridium perfringens (N = 21)): 0.5 to 1 µg/mL
MIC50 [18, 38]: 1 µg/mL (≈ 2.66 µM)
MIC90 [18, 38]: 1 µg/mL (≈ 2.66 µM)
MIC50 ([18]; Cutibacterium acnes, Propionibacterium acnes (N = 21), read-out: MIC50): 0.25 µg/mL (≈ 0.666 µM)
MIC90 ([18]; Cutibacterium acnes, Propionibacterium acnes (N = 21), read-out: MIC90): 0.5 µg/mL (≈ 1.33 µM)
MIC50 ([18]; Fusobacterium spp. (N = 21), read-out: MIC50): 1 µg/mL (≈ 2.66 µM)
MIC90 ([18]; Fusobacterium spp. (N = 21), read-out: MIC90): 4 µg/mL (≈ 10.7 µM)
MIC50 ([18]; Prevotella spp. (N = 20), read-out: MIC50): 8 µg/mL (≈ 21.3 µM)
MIC90 ([18]; Prevotella spp. (N = 20), read-out: MIC90): 16 µg/mL (≈ 42.6 µM)
MIC Range ([18]; Propionibacterium acnes (N = 21)): 0.25 to 0.5 µg/mL
% S [19]: 99.0%
MIC50 [19]: 0.015 µg/mL (≈ 0.04 µM)
MIC90 [19]: 0.12 µg/mL (≈ 0.32 µM)
% S [20]: 100.0%
MIC Range [20]: 0.06 to 0.5 µg/mL
MIC50 ([20]; read-out: MIC50): 0.12 µg/mL (≈ 0.32 µM)
MIC90 ([20]; read-out: MIC90): 0.25 µg/mL (≈ 0.666 µM)
% S [21]: 92.0%
MIC50 [21]: 0.03 µg/mL (≈ 0.0799 µM)
MIC90 [21]: 0.5 µg/mL (≈ 1.33 µM)
MIC Range [21]: 0.015 to 8 µg/mL
